Among the data in PubChem BioAssay (NCI) are GI50 and TGI values, retold here.

Among the test systems are 786-0 renal; CCRF-CEM leukemia; HL-60(TB) leukemia; HOP-92 NSCLC; MOLT-4 leukemia; NCI/ADR-RES ovarian; OVCAR-3 ovarian; SF-268 CNS; SNB-19 CNS; UO-31 renal.
Assay in all cases: DTP human tumour cell line panel, 48 h

The structures appear in SMILES notation. Where “and” joins values, the source holds several entries; their conditions need not be identical. Identical values can stand only once.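 Following 48 hours of exposure in 96-well plates, responses at five concentrations were used to interpolate endpoints linearly. At the GI50, growth is halved. TGI: total growth inhibition.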

`O=C1Cc2cc(CCn3ccnc3)c(Cl)cc2N1`: the GI50 is above 100 µM in the test with 786-0 renal; 3370 nM with CCRF-CEM leukemia; 63200 nM with HL-60(TB) leukemia; 3.54 µM in the test with HOP-92 NSCLC; 56.7 µM in the test with MOLT-4 leukemia; 5.46 µM with NCI/ADR-RES ovarian. Besides, the GI50 in the test on OVCAR-3 ovarian was 9.31 µM; in the test on SF-268 CNS, 11.2 µM; in the test on SNB-19 CNS it was 22.1 µM; in the test with UO-31 renal, 58 µM. Besides, the TGI in the test on 786-0 renal was above 100 µM; with CCRF-CEM leukemia, above 100 µM; in the test on HL-60(TB) leukemia it was above 100 µM; in the test on HOP-92 NSCLC it was 91.5 µM; in the test on MOLT-4 leukemia, above 100 µM; in the test on NCI/ADR-RES ovarian it was above 100 µM. Besides, the total growth inhibition concentration (TGI) in the test on OVCAR-3 ovarian is 78.1 µM; with SF-268 CNS, above 100 µM; with SNB-19 CNS it was above 100 µM; in the test with UO-31 renal, above 100 µM.

Take `Nc1nc(-c2ccccc2)c(-c2ccccc2)c(-c2nc(N)nc(-c3ccccc3)c2-c2ccccc2)n1`: the total growth inhibition concentration (TGI) in the test on 786-0 renal, with HL-60(TB) leukemia, in the test on HOP-92 NSCLC, with MOLT-4 leukemia, in the test on NCI/ADR-RES ovarian and with OVCAR-3 ovarian was above 100 µM each time. In addition, the total growth inhibition concentration (TGI) with SF-268 CNS, in the test with SNB-19 CNS and with UO-31 renal was above 100 µM each time.

`N/C(=N\O)c1ncc(-c2ccc(C(F)(F)F)cc2)c(NC2CCCCCC2)n1`: the GI50 in the test on 786-0 renal is 3.54 µM; with CCRF-CEM leukemia, 2460 nM; with HL-60(TB) leukemia it was 2060 nM; in the test with MOLT-4 leukemia it was 5.44 µM and 1.9 µM; in the test on NCI/ADR-RES ovarian, 4.41 µM and 0.593 µM; in the test with OVCAR-3 ovarian it was 8.8 µM and 3.74 µM. The GI50 in the test on SF-268 CNS was 3.64 µM; in the test with SNB-19 CNS, 3.27 µM. The TGI in the test with 786-0 renal amounted to 13.1 µM; in the test on CCRF-CEM leukemia, 11.8 µM; with HL-60(TB) leukemia, 5.52 µM; with MOLT-4 leukemia, 5.78 µM; in the test with NCI/ADR-RES ovarian it was 13.4 µM; in the test on OVCAR-3 ovarian, 15.2 µM. The results for the total growth inhibition concentration (TGI) in the test on SF-268 CNS, in the test with SNB-19 CNS and in the test with UO-31 renal were 15.7 µM, 13.8 µM and 10.9 µM, respectively.

For `O=S(=O)(NCCNc1nccc(-c2c(-c3cccc(O)c3)nc3sccn23)n1)c1ccc(F)cc1`, the GI50 with 786-0 renal is 5.35 µM; in the test with CCRF-CEM leukemia, 2800 nM; in the test with HOP-92 NSCLC it was 11.5 µM; in the test on MOLT-4 leukemia, 5.53 µM; with NCI/ADR-RES ovarian, 53 µM; in the test on OVCAR-3 ovarian, 8.53 µM. Besides, the GI50 is 7.51 µM with SF-268 CNS, 16.5 µM in the test with SNB-19 CNS and 4.32 µM in the test with UO-31 renal. For the same compound, the TGI with 786-0 renal was 41.8 µM; with CCRF-CEM leukemia, above 100 µM; with HOP-92 NSCLC it was 57 µM; with MOLT-4 leukemia it was 32 µM; in the test on NCI/ADR-RES ovarian, above 100 µM; with OVCAR-3 ovarian, 34.5 µM. Moreover, the TGI in the test with SF-268 CNS stood at 42.3 µM; in the test with SNB-19 CNS, 75.3 µM; in the test with UO-31 renal, 21 µM.

With `C=CCN1C(=O)/C(=c2\sc3n(c2=O)C2C(NN=3)N(CC)C(=O)N2CC)c2ccccc21` (stereo not given), the GI50 was 0.708 µM in the test on 786-0 renal; 469 nM in the test with CCRF-CEM leukemia; 315 nM in the test with HL-60(TB) leukemia; 0.842 µM in the test on HOP-92 NSCLC; 1.71 µM in the test with MOLT-4 leukemia; 0.434 µM in the test with NCI/ADR-RES ovarian. Besides, the GI50 is 0.377 µM in the test with OVCAR-3 ovarian, 1.26 µM in the test with SF-268 CNS and 0.973 µM in the test on SNB-19 CNS. The TGI with 786-0 renal is 14.9 µM; with CCRF-CEM leukemia, above 100 µM; with HL-60(TB) leukemia, 2.05 µM; with HOP-92 NSCLC, 9.2 µM; in the test with MOLT-4 leukemia, above 100 µM; in the test with NCI/ADR-RES ovarian, above 40.5 µM. Also, the figures for the TGI with OVCAR-3 ovarian, in the test with SF-268 CNS and in the test with SNB-19 CNS were 2.35 µM, above 100 µM and above 74.9 µM, respectively.

For the compound `Cc1ccc(-n2c3c(c4c(CN5CCCCC5)c(O)ccc42)CCc2ccccc2C3=O)cc1`, the GI50 is 33.5 µM with 786-0 renal; 477 nM in the test with HL-60(TB) leukemia; 20 µM with HOP-92 NSCLC; above 100 µM in the test with MOLT-4 leukemia; 71.2 µM in the test on NCI/ADR-RES ovarian; above 100 µM with OVCAR-3 ovarian. Moreover, the GI50 with SF-268 CNS, with SNB-19 CNS and in the test with UO-31 renal was above 100 µM each time. Moreover, the total growth inhibition concentration (TGI) with 786-0 renal was above 100 µM; in the test with HL-60(TB) leukemia, above 100 µM; with HOP-92 NSCLC it was 88.2 µM; with MOLT-4 leukemia it was above 100 µM; with NCI/ADR-RES ovarian it was above 100 µM; in the test on OVCAR-3 ovarian, above 100 µM. In addition, the TGI in the test with SF-268 CNS, in the test with SNB-19 CNS and with UO-31 renal was above 100 µM in each case.

For `CC(=O)Nc1ccc2nncnc2c1`, the TGI in the test with 786-0 renal, with CCRF-CEM leukemia, with HL-60(TB) leukemia, in the test with MOLT-4 leukemia, in the test on NCI/ADR-RES ovarian and with OVCAR-3 ovarian was above 100 µM each time. For the same compound, the TGI in the test with SF-268 CNS, with SNB-19 CNS and in the test on UO-31 renal was above 100 µM in each case.

For `COc1ccc(CN2c3ccccc3Sc3ccccc32)cc1F`, the GI50 in the test on 786-0 renal was 0.615 µM; in the test on CCRF-CEM leukemia, 407 nM; with HOP-92 NSCLC, 1.25 µM; in the test with MOLT-4 leukemia, 0.438 µM; in the test with NCI/ADR-RES ovarian, 0.322 µM; with OVCAR-3 ovarian, 0.312 µM. The figures for the GI50 in the test with SF-268 CNS, in the test on SNB-19 CNS and with UO-31 renal were 1.14 µM, 0.463 µM and 1.12 µM, respectively. Moreover, the TGI is above 100 µM with 786-0 renal; above 100 µM in the test with CCRF-CEM leukemia; above 38.9 µM in the test with HOP-92 NSCLC; above 100 µM with MOLT-4 leukemia; 2.04 µM in the test on OVCAR-3 ovarian; above 100 µM with SF-268 CNS. The TGI in the test with SNB-19 CNS and in the test on UO-31 renal was above 100 µM in each case.

Take `CC1C2Cc3ccc(O)cc3C1(C)CCN2C` (stereo not given): the TGI in the test on 786-0 renal, in the test with CCRF-CEM leukemia, in the test on HL-60(TB) leukemia, in the test with MOLT-4 leukemia, in the test with NCI/ADR-RES ovarian and in the test on OVCAR-3 ovarian was above 100 µM throughout. Also, the concentration for total growth inhibition (TGI) with SF-268 CNS, in the test with SNB-19 CNS and in the test on UO-31 renal was above 100 µM each time.
